Reference: patent US11066399B2, “Ferroportin inhibitors” (Vifor (International) AG, priority 2015, dated 2021)
Marks after values point to notes of the source that are not given here.

How the values were obtained:
Hbb th3/+ mice = test: Improvement of anemia, ineffective erythropoiesis and iron overload in a mouse model of β-thalassemia intermedia; assay type: in vivo; details: % change to vehicle; for Decrease in serum iron: dosed for 3 h
Description: The efficacy of Fpn inhibitors was investigated using a mouse model of transfusion-independent β-thalassemia. Mice with heterozygous deletion of β1 and β2 globin genes (called Hbb th3/+ mice) develop transfusion-independent anemia, ineffective erythropoiesis, splenomegaly and secondary iron overload in spleen, liver and kidneys. […] Hbb th3/+ mice were dosed twice daily with either compound at 20 or 60 mg/kg or with methylcellulose (10 ml/kg, Sigma, Cat. 274429) as a vehicle. Between both doses mice had access to drinking water supplemented with 1 mM ^58Fe(II)-sulfate (Vifor Pharma, Batch No. ROR 3096) and 10 mM ascorbic acid (Sigma, Cat. 795437) for 6 h. […] Water without ^58Fe(II)-Sulfate and ascorbic acid was provided during the remaining 18 h. Dosing of Fpn inhibitors or vehicle followed by exposure to iron-containing water was repeated for 20 to 46 days in individual experiments.
Additional hematologic parameters were measured in terminal blood using automated blood cell analyzer.
The inefficient erythropoiesis of Hbb th3/+ mice causes excessive proliferation of erythroid precursors in spleen, leading to splenomegaly.
Erythroferrone is produced by erythrocyte precursors proliferating massively in spleens of Hbb th3/+ mice as a consequence of extramedullar erythropoiesis.
Increased iron demand due to inefficient erythropoiesis and chronically low hepcidin levels in patients with thalassemia causes organ iron loading and associated morbidities, such as hepatocellular carcinoma and heart failure (Rivella S. Haematologica, 2015). Hbb th3/+ mice absorb excessive amounts of iron as a consequence of inadequately low hepcidin levels relative to the high iron content in liver, spleen and kidney and increased ferroportin expression in duodenum (Gardenghi S., Blood, 2007).
Additionally, reactive oxygen species (ROS) were detected in bone marrow cells using a fluorescent indicator, CM-H2DCFDA (Thermo Fisher Scientific, Cat. C6827).
Table 10. Efficacy of Ferroportin inhibitors in a mouse model of thalassemia intermedia (Hbb th3/+ mice). […] Data are expressed as difference to the vehicle control group for hemoglobin and as % change to the vehicle control group for all other parameter shown

b2m−/− mice = test: Correction of hyperferremia in beta2-microglobulin deficient mice; assay type: in vivo, mouse; details: for effect on elevated serum iron: b2m−/− mice, 50 mg/kg p.o. for 3 h
Description: Female and male homozygous b2m−/− mice were supplied from Jackson Laboratories (B6.129P2-B2mtm1Unc/J, Stock Number: 002087) at age of 6 to 7 weeks and fed standard diet (Harlan Provimi Kliba 3436) ad libitum. Age and gender matched WT C57BL/6 mice are supplied by Charles River. To study the acute effects of ferroportin (Fpn) inhibitors in iron overload b2m−/− mice were treated with compounds or the corresponding amount of vehicle at a volume of 10 ml/kg body weight. Fpn inhibitor compounds were formulated in 0.5% methylcellulose/water or 20% cremophor EL/water and dosed p.o. in mice at 50 mg/kg body weight. WT controls received only vehicle. Three hours later, mice were pre-terminally anesthetized in isoflurane chambers and blood was collected by retro-orbital bleeding. Mice were sacrificed by cervical dislocation and spleens, livers and duodena were harvested and used for biomarker analysis. All experiments have been performed in compliance with license approved by the responsible veterinarian authorities. Serum was isolated by centrifugation of blood into gel-containing microtainers (BD Biosciences) and serum iron was determined by the MULTIGENT Iron assay (Abbott Diagnostics, Cat. 6K95). Four to nine mice per group were used and one-way ANOVA with Bonferroni's multiple comparison test was applied to analyze the statistical differences between the experimental groups.
Blood was collected 1 (#) or 3 (##) hours after oral administration of the indicated doses of Fpn inhibitors to beta2-microglobulin deficient mice and serum iron concentrations were measured. Relative reduction (%) of serum iron levels are shown, which were calculated by subtracting the average of serum iron values of animals dosed with the Fpn inhibitor from that of vehicle-treated animals. The difference in average serum iron values between vehicle and compound treated groups was then divided by the average of serum iron of the vehicle control group and listed as percentage.

ferroportin (Fpn) = target: T1, ferroportin (Fpn) (Mus musculus, UniProt Q9JHI9); test: Hepcidin Internalization Assay (J774); assay type: cell-based; details: average (AVE) of multiple measurements; TMR-hepcidin 25 nM, J774 cells
T1 construct: host or cells: J774 mouse macrophage cell line, Fe(III)-NTA induced
T1 sequence (Q9JHI9 1-570): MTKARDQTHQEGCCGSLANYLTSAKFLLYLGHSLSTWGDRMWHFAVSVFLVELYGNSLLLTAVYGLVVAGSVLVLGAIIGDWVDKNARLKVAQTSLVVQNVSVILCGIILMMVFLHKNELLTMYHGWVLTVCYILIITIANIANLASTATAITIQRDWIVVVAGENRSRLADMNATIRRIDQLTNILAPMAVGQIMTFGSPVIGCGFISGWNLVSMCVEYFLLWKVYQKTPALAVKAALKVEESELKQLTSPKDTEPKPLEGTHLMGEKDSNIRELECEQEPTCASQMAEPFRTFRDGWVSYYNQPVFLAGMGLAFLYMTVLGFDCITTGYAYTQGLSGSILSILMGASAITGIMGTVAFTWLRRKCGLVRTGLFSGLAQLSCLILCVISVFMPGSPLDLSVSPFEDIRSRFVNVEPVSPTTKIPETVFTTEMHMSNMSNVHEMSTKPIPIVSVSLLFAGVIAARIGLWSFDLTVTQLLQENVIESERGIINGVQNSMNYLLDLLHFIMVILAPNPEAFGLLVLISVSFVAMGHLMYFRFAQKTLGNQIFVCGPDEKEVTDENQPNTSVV
Excerpt: This cellular assay allows quantification of the binding of hepcidin to ferroportin (Fpn) through microscopic detection of internalization of a fluorescently labeled hepcidin into J774 cells. […] Binding of hepcidin to Fpn triggers internalization and degradation of both hepcidin and Fpn. However, the TMR (6-carboxytetramethylrhodamine) fluorophore attached to hepcidin remains associated with the cell after degradation of the hepcidin peptide backbone. Therefore, microscopic detection of cell-associated TMR fluorescence is a measure of hepcidin binding to Fpn and internalization of hepcidin and Fpn. If TMR-hepcidin is prevented from binding to Fpn, cellular TMR fluorescence remains low (Dürrenberger et al, 2013). The effect of small molecular weight Fpn inhibitor compounds in this assay was evaluated in vitro as described below.
After overnight incubation, cells were washed 3 times with pre-warmed DMEM w/o phenol red, 30 μl/well of DMEM w/o phenol red was added after the final wash and 10 μl/well of dilution series of test compounds were added in triplicates. […] Cells were incubated in a total volume of 50 μl at 37° C. with 5% CO2 for 2 hours, then Hoechst 33342 dye was added to a final concentration of 0.5 μg/ml to stain nuclei and further incubated for 10 min. at 37° C. with 5% CO2. Cells were washed 3 times with PBS and fixed in 100 μl of 4% paraformaldehyde in PBS for 15 min. at room temperature. After removal of the paraformaldehyde solution, cells were washed 3 times with PBS leaving 100 μl per well and the plates were sealed with foil plate seal. TMR (530-550 nm excitation/575-625 nm emission/400 ms exposure time) and Hoechst 33342 (360-370 nm excitation/420-460 nm emission/10 ms exposure time) fluorescence images were acquired using a ScanR plate imager (Olympus) with a 20× high NA objective. Four pictures were acquired per well and fluorescence channel covering ca. 1500 cells per well. The acquired image data was analysed with the ScanR image analysis software. Image analysis included detection of nuclei (Hoechst 33342 fluorescence), identification of cell-associated regions, application of a virtual channel and thresholding for rolling-ball-type background reduction, followed by application of the Sum(Mean) algorithm to measure the TMR fluorescence associated with cells as a quantitative measure for internalized TMR-hepcidin. IC50 values were calculated with the Sum(Mean) raw data using “log(inhibitor) vs. response” curve fitting of Prism 5 software (GraphPad Software Inc., version 5.02).

[1] = 20 mg/kg twice daily for 20-46 days
[2] = 60 mg/kg twice daily for 20-46 days
[3] = male b2m−/− mice, Dose 60 mg/kg oral, blood collected 3 (##) hours after dosing

O=C(NCc1ncccc1F)c1coc(CCNCCc2nc3ccccc3[nH]2)n1 [Example 127]
Decrease in 58Fe spleen iron content (Hbb th3/+ mice; [1]): 43% | Decrease in RDW (Hbb th3/+ mice; [1]): 19% | Decrease in serum erythropoietin (Hbb th3/+ mice; [1]): 32% | Increase in hematocrit (Hbb th3/+ mice; [1]): 3% | Prevention of liver 58Fe loading (Hbb th3/+ mice; [1]): 39% | Decrease in serum iron (Hbb th3/+ mice; 20 mg/kg): 68% | Decrease in 58Fe spleen iron content (Hbb th3/+ mice; [2]): 68% | Decrease in RDW (Hbb th3/+ mice; [2]): 25% | Decrease in serum erythropoietin (Hbb th3/+ mice; [2]): 33% | Increase in hematocrit (Hbb th3/+ mice; [2]): 20% | Prevention of liver 58Fe loading (Hbb th3/+ mice; [2]): 59% | Decrease in serum iron (Hbb th3/+ mice; 60 mg/kg): 81% | Serum Iron Reduction (%) (b2m−/− mice; female b2m−/− mice, Dose 20 mg/kg oral, sampling time not marked): 47*** % | Serum Iron Reduction (%) (b2m−/− mice; female b2m−/− mice, Dose 60 mg/kg oral, sampling time not marked): 74*** % | Serum Iron Reduction (%) (b2m−/− mice; male b2m−/− mice, Dose 60 mg/kg oral, sampling time not marked): 83** %

O=C(NCc1ncccc1F)c1csc(CCN2Cc3nc4ccccc4n3CC2=O)n1 [Example 275]
IC50 (ferroportin (Fpn)): 26000 nM

O=C(NCc1ncccc1F)c1csc(CCN2CCn3c(nc4ccccc43)C2)n1 [Example 276]
IC50 (ferroportin (Fpn)): 27200 nM

O=C(NCc1ncccc1F)c1cnc(C2CN(CCc3nc4c(F)cccc4[nH]3)C2)o1 [Example 3]
IC50 (ferroportin (Fpn)): 170 nM

O=C(NCc1ncccc1F)c1cnc(CCNCc2nc3ccccc3[nH]2)o1 [Example 4]
IC50 (ferroportin (Fpn)): 155 nM

O=C(NCc1ncccc1F)c1noc(CCNCCc2nc3ccccc3[nH]2)n1 [Example 279]
IC50 (ferroportin (Fpn)): 2010 nM

O=C(NCc1ncccc1F)c1coc(C2CN(CCc3nc4ccccc4[nH]3)C2)n1 [Example 208]
Serum Iron Reduction (%) (b2m−/− mice; female b2m−/− mice, Dose 20 mg/kg oral, blood collected 3 (##) hours after dosing): 9% | Serum Iron Reduction (%) (b2m−/− mice; male b2m−/− mice, Dose 20 mg/kg oral, blood collected 3 (##) hours after dosing): 44% | Serum Iron Reduction (%) (b2m−/− mice; [3]): 67** %

Cc1nc(CCNCCc2nc3ccccc3[nH]2)sc1C(=O)NCc1ncccc1F [Example 7]
IC50 (ferroportin (Fpn)): 400 nM

O=C(NCc1ncccc1F)c1csc(CCNCCc2nc3ccccc3[nH]2)n1 [Example 94]
Serum Iron Reduction (%) (b2m−/− mice; female b2m−/− mice, Dose 60 mg/kg oral, blood collected 3 (##) hours after dosing): 47% | Serum Iron Reduction (%) (b2m−/− mice; [3]): 67%

O=C(NCc1ncccc1F)c1cnc(CCNCCc2nc3ccccc3[nH]2)s1 [Example 8]
IC50 (ferroportin (Fpn)): 240 nM

O=C(NCc1ncccc1F)c1cnc(C2CN(Cc3nc4ccccc4[nH]3)C2)o1 [Example 280]
IC50 (ferroportin (Fpn)): 50000 nM

O=C(NCc1ncccc1F)c1cnc(C2CN(CCc3nc4cc(F)ccc4[nH]3)C2)o1 [Example 5]
IC50 (ferroportin (Fpn)): 63 nM

O=C(NCc1ncccc1F)c1csc(CCNCCc2nc3ccccc3[nH]2)n1 [Example Compound No. 94, 2-(2-{[2-(1H-1,3-benzodiazol-2-yl)ethyl]amino}ethyl)-N-[(3-fluoropyridin-2-yl)methyl]-1,3-thiazole-4-carboxamide]
effect on elevated serum iron (b2m−/− mice): corrected the elevated serum iron to the levels observed in WT controls

O=C(NCc1ccccn1)c1noc(CCNCCc2nc3ccccc3[nH]2)n1 [Example 278]
IC50 (ferroportin (Fpn)): 476 nM

O=C(NCc1ncccc1F)c1csc(CCNCc2nc3ccccc3[nH]2)n1 [Example Compound No. 40, 2-{2-[(1H-1,3-benzodiazol-2-ylmethyl)amino]ethyl}-N-[(3-fluoropyridin-2-yl)methyl]-1,3-thiazole-4-carboxamide]
effect on elevated serum iron (b2m−/− mice): corrected the elevated serum iron to the levels observed in WT controls
